{
  "source": "patent US7319094B2",
  "about": "“Increased and sustained in vivo gene expression using a nucleic acid, histone and amphipathic compound composition” (Rhode Island Hospital, priority 2001, dated 2008)",
  "assay_type_in_all_cases": "cell-based, human",
  "key": {"[1]": {"tested_on": "PNET2 cells induced to express AD7c-NTP", "experiment": "Crystal violet viability assay", "settings": "3 mM IPTG-induced AD7c-NTP; relative to un-induced FCS-stimulated and IPTG-induced NGF or PDGF stimulated cultures", "procedure": "(§1) To examine the effects of different growth factors on AD7c-NTP expression (and over-expression), the cells were serum-starved for 16 hours, after which IPTG (1-5 mM) was added to the medium. Four hours later, the cells were stimulated with insulin (50 nM), IGF-1 (5 ng/ml), NGF ([…]), or platelet-derived growth factor (PDGF; 5 ng/ml) for 24-72 hours. The cells were analyzed for morphological changes, viability, AD7c-NTP immunoreactivity, and expression of pro-apoptosis genes, survival genes, and phospho-tau.\nViability was measured by a standard crystal violet assay. Crystal violet dye labels only viable cells. The assays were performed with cells seeded into 96-well plates at a density of 2×10^4 cells/well. The absorbances were measured using a Spectracount plate reader (Packard, Meriden, Conn.). The crystal violet absorbances increased linearly with cell density between 10^4 and 5×10^5 cells/well.\nCells were serum-starved for 24 hours. However, since several hours of IPTG stimulation were required to induce AD7c-NTP gene expression or CAT activity, IPTG (3 mM) was added to the cultures after 16 hours of serum-starvation, i.e. 8 hours prior to growth factor stimulation. […]\nIncreased cell loss associated with insulin-stimulation and AD7c-NTP over-expression Cell viability was quantified using the microculture Crystal violet assay with cells seeded into 96-well plates. […]"}, "[2]": {"tested_on": "PNET2 cells induced to express AD7c-NTP", "experiment": "Cell morphology by phase contrast microscopy", "settings": "IPTG-induced AD7c-NTP; insulin 50 nM, IGF-1 5 ng/ml, NGF 2.5 ng/ml, PDGF 5 ng/ml; 24-48 hours", "procedure": "as §1\nCells were serum-starved for 24 hours. However, since several hours of IPTG stimulation were required to induce AD7c-NTP gene expression or CAT activity, IPTG (3 mM) was added to the cultures after 16 hours of serum-starvation, i.e. 8 hours prior to growth factor stimulation. The cells were stimulated with insulin (50 nM), IGF-1 (5 ng/ml), NGF (2.5 ng/ml), or PDGF (5 ng/ml) and examined by phase contrast microscopy 24-48 hours later. PNET2 cells could be maintained in serum-free medium for 5 to 7 days with insulin, IGF-1, NGF, or PDGF as the only growth stimulus. In addition, each of these growth factors supports DNA synthesis and promotes modest outgrowth of multipolar neurites in PNET2 cells."}, "[3]": {"tested_on": "nitric oxide synthase-3 (NOS-3)", "experiment": "NOS-3 expression, Western blot", "settings": "PNET2 cells induced to express AD7c-NTP; relative to PDGF-stimulated cultures", "source_text": "Standard Western blot assays wew used to measure cellular levels of p53, Bcl-2, p21/Waf1, phospho-tau, tau, c-fos, NTP, and activated (phosphorylated) forms of Erk mitogen activated protein (MAP) kinase, amino-terminal c-jun-activated kinase (pJNK), and p38/HOG1. Immunoprecipitation followed by Western blot analysis was used to measure p85 subunit associated with IRS1. For Western blot analysis of p53 Bcl-2, phospho-tau, tau, c-fos, and NTP, the cells were lysed in ice cold radioimmunoprecipitation assay (RIPA) buffer supplemented with protease and phosphatase inhibitors. For the immunoprecipitation studies, Western blot analysis of phospho-Erk, pJNK, and p38, and the PI3 kinase assays, the cells were harvested in Triton lysis buffer supplemented with protease and phosphatase inhibitors. Protein concentrations were measured using the BCA assay (Pierce, Rockford, Ill.). Samples containing 60 μg of protein were fractionated by sodium dodecyl sulfate polyacrylamide gel electrophoresis (SDS-PAGE), then transferred to PVDF membranes, and analyzed by Western immunoblotting. Immunoreactivity was detected with horseradish peroxidase conjugated secondary IgG and PicoWest enhanced chemiluminescence reagents (Pierce Chemical Company, Rockford, Ill.). CAT activity was measured using known methods. […]"}, "[4]": {"tested_on": "PY-PI3 kinase (total PI3 kinase)", "experiment": "PI3 kinase activity in anti-phospho-tyrosine (PY) immunoprecipitates", "settings": "24 or 48 hours of stimulation", "procedure": "The cells were harvested in Triton lysis buffer supplemented with protease and phosphatase inhibitors. Total PI3K was immunoprecipitated from 500 μg protein in cell lysates using rabbit polyclonal antibodies to the p85 subunit of PI3K and Protein A sepharose. The immunoprecipitants were incubated for 5 minutes at room temperature with 10 μg of sonicated phosphatidylinositol in HEPES buffer (200 mM HEPES, 4 mM EGTA, 4 mM sodium phosphate, pH 7.0). Reactions were initiated by the addition of 5 μCi [α^32p] ATP, 15 mM MgCl2, 150 mM ATP, 1.5 mM Tris-HCl, pH 7.4, and 15 mM NaCl. After 10 minutes incubation at 30° C., the reactions were stopped by the addition of HCl to a final concentration of 1.2 N, followed by chloroform/methanol extraction. Phosphorylated lipids were analyzed by thin layer chromatography using gel plates pre-coated with 1% oxalate (Merck, White House Station, N.J.). PI3K activity was measured with a phosphorimager.\nPI3 kinase is an important mediator of neuronal survival. The pro-survival effects of PI3K are mediated through activation of Akt (protein kinase B) and phosphorylation of Bad to render it inactivated. Inhibition of PI3 kinase activity is associated with PNET2 cell apoptosis. Therefore, experiments were carried out to determine if growth factor stimulated PI3 kinase activity was inhibited in insulin or IGF-1-stimulated cultures. Such inhibition has been observed following chronic ethanol exposure. Since insulin and IGF-1 can activate PI3 kinase through the insulin-receptor substrate-1 (IRS-1) or through IRS-1-independent pathways, both IRS1-associated PI3 kinase and total PI3 kinase activities were measured. These studies were conducted using insulin or PDGF stimulated cultures in which AD7c-NTP gene expression was induced by 3 mM IPTG stimulation. […] Levels of PI3 kinase activity were measured in anti-phospho-tyrosine (PY) immunoprecipitates. […] Similarly, PI3 kinase activity was readily detected in the PY immunoprecipitates prepared with cells stimulated with insulin or PDGF."}},
  "data": [
    {"substance": "insulin: Human insulin purchased from Novagen", "values": [
      {"measurement": "cell density (crystal violet)", "setting": "[1]", "value": "significantly reduced cell densities"},
      {"measurement": "cell morphology", "setting": "[2]", "value": "neurite retraction, cell rounding and increased cell death"},
      {"measurement": "NOS-3 level", "setting": "[3]", "value": "increased levels"},
      {"measurement": "PY-PI3 kinase activity, 24 or 48 hours", "setting": "[4]", "value": "similar"}
    ]}
  ]
}
